Each structure is given as a SMILES string.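 Assay format: 96-well plates, 48-hour exposure. TGI: total growth inhibition.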

Holding throughout (assay): growth of human tumour cells (NCI), 48 h
Test [1] relates to K-562 leukemia.
In test [2] the test system is SR leukemia.
The test system of test [3] is HOP-62 NSCLC.
For test [4], the system named is OVCAR-5 ovarian.
For test [5], the system named is EKVX NSCLC.
Test [6] concerns MDA-MB-231 breast.
The test system of test [7] is HL-60(TB) leukemia.
The test system of test [8] is A498 renal.
The subject of test [9] is IGROV1 ovarian.
Test [10] has as its system RPMI-8226 leukemia.
Test [11] concerns UACC-257 melanoma.
Test [12] deals with SNB-19 CNS.
Test [13] has as its system COLO 205 colon.
Test [14] relates to LOX IMVI melanoma.
Test [15] has as its system CAKI-1 renal.
The test system of test [16] is PC-3 prostate.
In test [17] the test system is SK-MEL-28 melanoma.
Test [18] relates to HCT-116 colon.
The subject of test [19] is NCI-H226 lung.
The subject of test [20] is MOLT-4 leukemia.

Turning to `C=CC(C)CCC(C/C=C(\C)CCCC(C)C)C(=C)CCCC(C)C` (stereo not given), the TGI in test [1], in test [2], in test [3], in test [4], in test [5] and in test [6] was over 100 µM in each case. Moreover, the TGI in test [7], in [8], in [9], in test [10], in test [11] and in test [12] was over 100 µM throughout. The TGI in [13], in [14], in [15], in test [16], in test [17] and in test [18] was over 100 µM each time. The TGI in test [19] and in test [20] was over 100 µM in each case.

Take `O=[N+]([O-])c1ccc(CSc2c3ccccc3nc3ccccc23)cc1`: the TGI in test [1] was over 34.9 µM; in [2], over 27.1 µM; in test [3], 35.7 µM; in test [4], 32.5 µM; in test [5], 34.7 µM; in [6], 27.4 µM. For the same compound, the TGI in [7] came out at 22.8 µM; in [8], 58.8 µM; in test [9] it was 7.66 µM; in test [10], 9.29 µM; in test [11] it was 10.5 µM; in test [12] it was 37.4 µM. Also, the TGI was 16.9 µM in [13]; 10.6 µM in [14]; 29.6 µM in test [15]; 20 µM in test [16]; 13.5 µM in test [17]; 7.14 µM in test [18]. Also, the values for the TGI in test [19] and in [20] were 35.8 µM and over 21.2 µM, respectively.

For `O=C(CC(C(=O)c1cccs1)c1ccsc1)c1ccc(Cl)cc1` (stereo not given), the TGI in test [1], in [2], in [3], in test [4], in test [5] and in [6] was over 100 µM in each case. The TGI in test [7], in [8], in test [9], in test [10], in test [11] and in test [12] was over 100 µM each time. Besides, the TGI in test [13], in test [14], in [15], in test [16], in test [17] and in test [18] was over 100 µM throughout. Besides, the TGI in test [19] and in [20] was over 100 µM throughout.

Regarding `Cc1cccc(-c2cccc(COCc3cccc(-c4cccc(CO)n4)n3)n2)n1`, the TGI in test [1], in test [2], in test [3], in [4], in [5] and in test [6] was over 50 µM each time. Moreover, the TGI in test [7], in test [8], in test [9], in [10], in [11] and in [12] was over 50 µM each time. Further, the TGI in test [13], in test [14], in test [15], in test [16], in [17] and in test [18] was over 50 µM each time. Also, the TGI in [19] and in [20] was over 50 µM in each case.

The record behind these values is PubChem BioAssay (NCI).
